Test results published in ChEMBL document CHEMBL4020715, “Structure-activity relationship study of vitamin D analogs with oxolane group in their side chain” (Eur J Med Chem, 2017).
The source made the active and inactive calls. The calls are words filed in the database; no cut-off is given here.

How the values were obtained:
Format in all cases: cell-based
[1] = molecular target: T1, Vitamin D3 receptor A (Danio rerio) (UniProt Q9PTN2); assay: Agonist activity at zebrafish VDR LBD (156 to 453 residues) expressed in HEK293 EBNA cells harboring human CYP24-Tk-Luc plasmid assessed as induction of CYP24a1 gene at 0.1 nM after 18 hrs by dual-luciferase transcriptional reporter gene assay
T1 sequence (whole entry): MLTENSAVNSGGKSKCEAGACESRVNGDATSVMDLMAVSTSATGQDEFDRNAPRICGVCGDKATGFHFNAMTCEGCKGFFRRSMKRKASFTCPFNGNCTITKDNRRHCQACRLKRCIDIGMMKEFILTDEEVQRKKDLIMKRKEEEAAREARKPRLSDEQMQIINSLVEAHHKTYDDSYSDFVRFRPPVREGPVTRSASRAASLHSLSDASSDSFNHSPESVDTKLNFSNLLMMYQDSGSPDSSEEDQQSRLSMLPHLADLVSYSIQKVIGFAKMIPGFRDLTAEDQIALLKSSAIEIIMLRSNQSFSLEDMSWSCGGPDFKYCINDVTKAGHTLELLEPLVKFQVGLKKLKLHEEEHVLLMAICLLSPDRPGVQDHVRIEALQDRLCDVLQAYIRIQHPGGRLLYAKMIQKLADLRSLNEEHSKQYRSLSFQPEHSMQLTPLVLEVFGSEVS

[2] = molecular target: T1, Vitamin D3 receptor A (Danio rerio); assay: Agonist activity at zebrafish VDR LBD (156 to 453 residues) expressed in HEK293 EBNA cells harboring human CYP24-Tk-Luc plasmid assessed as induction of CYP24a1 gene at 100 nM after 18 hrs by dual-luciferase transcriptional reporter gene assay
Vitamin D3 receptor A = molecular target: T2, Vitamin D3 receptor A (Danio rerio, UniProt Q9PTN2); assay: Agonist activity at zebrafish VDR LBD (156 to 453 residues) expressed in HEK293 EBNA cells harboring human CYP24-Tk-Luc plasmid assessed as induction of CYP24a1 gene after 18 hrs by dual-luciferase transcriptional reporter gene assay
T2 sequence (Q9PTN2 whole entry): T1 sequence (whole entry)

[3] = molecular target: T1, Vitamin D3 receptor A (Danio rerio); assay: Agonist activity at zebrafish VDR LBD (156 to 453 residues) expressed in HEK293 EBNA cells harboring human CYP24-Tk-Luc plasmid assessed as induction of CYP24a1 gene at 1000 nM after 18 hrs by dual-luciferase transcriptional reporter gene assay relative to control
[4] = molecular target: T3, Vitamin D3 receptor (Homo sapiens) (UniProt P11473); assay: Agonist activity at VP16-fused human full length VDR expressed in COS7 cells assessed as corepressor Gal4 DBD-fused NCOR NRID release at 10 to 1000 nM after 48 hrs by luciferase reporter gene assay based mammalian two-hybrid assay
T3 sequence (whole entry): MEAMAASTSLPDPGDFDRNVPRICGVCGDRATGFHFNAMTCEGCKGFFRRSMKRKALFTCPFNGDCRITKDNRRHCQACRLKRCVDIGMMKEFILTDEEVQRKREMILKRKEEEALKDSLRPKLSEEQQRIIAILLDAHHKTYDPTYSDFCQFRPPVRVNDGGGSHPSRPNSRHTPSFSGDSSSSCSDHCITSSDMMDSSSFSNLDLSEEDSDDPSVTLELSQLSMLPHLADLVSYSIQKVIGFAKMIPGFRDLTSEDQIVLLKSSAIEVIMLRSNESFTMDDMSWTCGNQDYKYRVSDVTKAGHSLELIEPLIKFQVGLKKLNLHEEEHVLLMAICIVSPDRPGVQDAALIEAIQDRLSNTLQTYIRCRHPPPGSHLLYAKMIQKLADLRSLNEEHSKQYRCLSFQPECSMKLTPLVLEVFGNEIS

[5] = molecular target: T3, Vitamin D3 receptor (Homo sapiens); assay: Agonist activity at VP16-fused human full length VDR expressed in COS7 cells assessed as corepressor Gal4 DBD-fused SMRT NRID release at 10 to 1000 nM after 48 hrs by luciferase reporter gene assay based mammalian two-hybrid assay

Row | Activity [1] | Activity [2] | EC50 (Vitamin D3 receptor A) [nM] | Efficacy [3] [%] | Activity [4] | Activity [5] | SMILES
1 | – | Active | > 100 | 90 | Active | Active | C=C1/C(=C\C=C2/CCC[C@]3(C)[C@@H]([C@H](C)[C@@H]4CC[C@@H](C(C)(C)O)O4)CC[C@@H]23)C[C@@H](O)C[C@H]1O
2 | – | – | > 100 | 100 | Active | Active | C=C1/C(=C\C=C2/CCC[C@]3(C)[C@@H]([C@H](C)[C@H]4CC[C@@H](C(C)(C)O)O4)CC[C@@H]23)C[C@@H](O)C[C@H]1O
3 | – | – | > 100 | 47 | Active | Active | C=C1/C(=C\C=C2/CCC[C@]3(C)[C@@H]([C@H](C)[C@@H]4CC[C@H](C(C)(C)O)O4)CC[C@@H]23)C[C@@H](O)C[C@H]1O

Second part, the molecule before the results:

Row | SMILES | Activity [1] | Activity [2] | EC50 (Vitamin D3 receptor A) [nM] | Efficacy [3] [%] | Activity [4] | Activity [5]
4 | C=C1/C(=C\C=C2/CCC[C@@]3(C)[C@H]2CC[C@@H]3[C@]2(C)C[C@@H](CC(C)(C)O)CO2)C[C@@H](O)C[C@@H]1O | Active | – | – | – | – | –
5 | C=C1/C(=C\C=C2/CCC[C@]3(C)[C@@H]([C@H](C)CCCC(C)(C)O)CC[C@@H]23)C[C@@H](O)C[C@H]1O | – | – | – | 100 | – | –
